This note sets out measurements from patent publication US5821240A, “Pyrimido[5,4]-dipyrimidines, pharmaceuticals containing them, their use and processes for the preparation thereof” (Dr. Karl Thomae GmbH, priority 1996, dated 1998).

Assay [1] relates to F/L-HERc cells expressing human EGF-R. Nature of the assay: Inhibition of EGF-dependent proliferation of F/L-HERc cells. The class given is cell-based, murine cell line; human EGF-R. The note with it: EGF 20 ng/ml, 37° C., 48 hours. From the text: (§1) In this case, an interleukin-3 (IL-3)-dependent cell line of murine origin was used and was genetically modified in such a way that it expresses functional human EGF-R. Proliferation of these cells, which are called F/L-HERc, can therefore be stimulated either by murine IL-3 or by EGF (see von Ruden, T. et al. in EMBO J. 7, 2749-2756 (1988) and Pierce, J. H. et al. in Science 239, […] (1988)).
(§2) The starting material for the F/L-HERc cells was the cell line FDC-P1 whose preparation has been described by Dexter, T. M. et al. in J. Exp. Med. 152, 1036-1047 (1980). However, it is also possible as an alternative to use other growth factor-dependent cells (see, for example, Pierce, J. H. et al. in Science 239, 628-631 (1988), Shibuya, H. et al. in Cell 70, 57-67 (1992) and Alexander, W. S. et al. in EMBO J. 10, 3683-3691 (1991)). Recombinant retroviruses as described in von Ruden, T. et al., EMBO J. 7, 2749-2756 (1988) Were used for expression of the human EGF-R cDNA (see Ullrich, A. et al. in Nature 309, 418-425 (1984)), with the difference that the retroviral vector LXSN (see Miller, A. D. et al. in BioTechniques 7, 980-990 (1989)) was employed for expression of the EGF-R cDNA, and the line GP+E86 (see Markowitz, D. et al. in J. Virol. 62, 1120-1124 (1988)) was used as packaging cell.
(§3) F/L-HERc cells were cultivated in RPMI/1640 medium (BioWhittaker), supplemented with 10% fetal calf serum (FCS, Boehringer Mannheim), 2 mM glutamine (BioWhittaker), standard antibiotics and 20 ng/ml human EGF (Promega), at 37° C. and 5% CO2. To investigate the inhibitor activity of the compounds according to the invention, 1.5×10^4 cells were cultivated in the above medium (200 μl) per well in triplicates in 96-well plates, stimulating proliferation of the cells either with EGF (20 ng/ml) or with murine IL-3. The source used for IL-3 was culture supernatants from the cell line X63/0 mIL-3 (see Karasuyama, H. et al. in Eur. J. Immunol. 18, 97-104 (1988)). The compounds according to the invention were dissolved in 100% dimethyl sulphoxide (DMSO) and added in various dilutions to the cultures, with the maximum DMSO concentration being 1%. The cultures were incubated at 37° C. for 48 hours.
(§4) To determine the inhibitory activity of the compounds according to the invention, the relative cell count was measured in O.D. units using the Cell Titre 96™ AQueous Non-Radioactive Cell Proliferation Assay (Promega). The relative cell count was calculated as a percent of the control (F/L-HERc cells without inhibitor), and the concentration of active substance which inhibits the proliferation of the cells by 50% (IC50) was inferred.

In a further assay the test system is F/L-HERc cells. In words: Inhibition of IL-3-dependent proliferation of F/L-HERc cells. The class given is cell-based. The note with it: Mus musculus, murine IL-3, 37° C., 48 hours.
Description: as §1, §2, §3, §4

Broadly, the IC50 is the midpoint of a concentration-inhibition curve. Higher therefore signals weaker potency in that assay. Turning to `COC(=O)NC1CCN(c2ncc3ncnc(Nc4ccc(F)c(Cl)c4)c3n2)CC1` [1(1), 4-[(3-Chloro-4-fluorophenyl)amino]-6-[4-methoxycarbonylamino-1-piperidinyl]pyrimido[5,4-d]pyrimidine], the values for the IC50 (in assay [1]; with F/L-HERc cells) were 34 nM and > 10000 nM, respectively.

Turning to `CC(C)(C)OC(=O)N1CCC(Nc2ncc3ncnc(Nc4ccc(F)c(Cl)c4)c3n2)CC1` [1(2), 4-[(3-Chloro-4-fluorophenyl)amino]-6-[1-tert-butyloxycarbonyl-4-piperidinylamino]pyrimido[5,4-d]pyrimidine], the IC50 in assay [1] is 44 nM; with F/L-HERc cells, > 10000 nM.

Turning to `Nc1c(Br)cc(Nc2ncnc3cnc(N4CCC(N)CC4)nc23)cc1Br` [1(3), 4-[(4-Amino-3,5-dibromophenyl)amino]-6-[4-amino-1-piperidinyl]pyrimido[5,4-d]pyrimidine], the IC50 in assay [1] was 67 nM; in the assay with F/L-HERc cells, > 1000 nM.

Consider `O=CNC1CCN(c2ncc3ncnc(Nc4ccc(F)c(Cl)c4)c3n2)CC1` [1(5), 4-[(3-Chloro-4-fluorophenyl)amino]-6-[4-formylamino-1-piperidinyl]pyrimido[5,4-d]pyrimidine], for which the values for the concentration for half-maximal inhibition (IC50) (in assay [1]; with F/L-HERc cells) were 21 nM and > 10000 nM, respectively.

Take `NCCNc1ncc2ncnc(Nc3ccc(F)c(Cl)c3)c2n1` [1(6), 4-[(3-Chloro-4-fluorophenyl)amino]-6-[2-aminoethylamino]-pyrimido[5,4-d]pyrimidine]: the IC50 was 123 nM in assay [1] and > 10000 nM with F/L-HERc cells.

Turning to `NCCCNc1ncc2ncnc(Nc3ccc(F)c(Cl)c3)c2n1` [1(9), 4-[(3-Chloro-4-fluorophenyl)amino]-6-[3-aminopropylamino]pyrimido[5,4-d]pyrimidine], the IC50 in assay [1] is 18 nM; in the assay on F/L-HERc cells, > 10000 nM.

For `NCCCCNc1ncc2ncnc(Nc3ccc(F)c(Cl)c3)c2n1` [1(10), 4-[(3-Chloro-4-fluorophenyl)amino]-6-[4-aminobutylamino]pyrimido[5,4-d]pyrimidine], the IC50 in assay [1] is 17 nM; in the assay with F/L-HERc cells, > 10000 nM.

For `CC(N)CNc1ncc2ncnc(Nc3ccc(F)c(Cl)c3)c2n1` (stereo not shown) [1(11), 4-[(3-Chloro-4-fluorophenyl)amino]-6-[2-amino-1-propylamino]pyrimido[5,4-d]pyrimidine], the figures for the IC50 (in assay [1]; in the assay on F/L-HERc cells) were 75 nM and > 10000 nM, respectively.

Turning to `CN1CCCN(c2ncc3ncnc(Nc4ccc(F)c(Cl)c4)c3n2)CC1` [1(12), 4-[(3-Chloro-4-fluorophenyl)amino]-6-[4-methyl-1-homopiperazinyl]pyrimido[5,4-d]pyrimidine], the IC50 was 375 nM in assay [1] and > 10000 nM in the assay on F/L-HERc cells.

Regarding `Fc1ccc(Nc2ncnc3cnc(N4CCCNCC4)nc23)cc1Cl` [1(13), 4-[(3-Chloro-4-fluorophenyl)amino]-6-[1-homopiperazinyl]-pyrimido[5,4-d]pyrimidine], the half-maximal inhibitory concentration (IC50) in assay [1] is 150 nM; with F/L-HERc cells it was > 10000 nM.

In the case of `Nc1ccc(CNc2ncc3ncnc(Nc4ccc(F)c(Cl)c4)c3n2)cc1` [1(14), 4-[(3-Chloro-4-fluorophenyl)amino]-6-[4-aminobenzylamino]pyrimido[5,4-d]pyrimidine], the concentration for half-maximal inhibition (IC50) was 28 nM in assay [1] and > 10000 nM with F/L-HERc cells.

For the compound `COC(=O)[C@H]1CC[C@H](Nc2ncc3ncnc(Nc4cc(Cl)c(N)c(Cl)c4)c3n2)CC1` [1(15), 4-[(4-Amino-3,5-dichlorophenyl)amino]-6-[(trans-4-methoxycarbonylcyclohexyl)amino]pyrimido[5,4-d]pyrimidine], the IC50 is 15 nM in assay [1] and > 10000 nM in the assay on F/L-HERc cells.

For the compound `CCN(CCO)c1ncc2ncnc(Nc3ccc(F)c(Cl)c3)c2n1` [1(23), 4-[(3-Chloro-4-fluorophenyl)amino]-6-[N-ethyl-N-(2-hydroxyethyl)amino]pyrimido[5,4-d]pyrimidine], the IC50 in assay [1] was 63 nM; with F/L-HERc cells, > 1000 nM.

With `Fc1ccc(Nc2ncnc3cnc(NCC45CCN(CC4)CC5)nc23)cc1Cl` [1(24), 4-[(3-Chloro-4-fluorophenyl)amino]-6-[4-quinuclidinylmethylamino]pyrimido[5,4-d]pyrimidine], the figures for the IC50 (in assay [1]; with F/L-HERc cells) were 9 nM and > 1000 nM, respectively.

Take `COC(CNc1ncc2ncnc(Nc3ccc(F)c(Cl)c3)c2n1)OC` [1(25), 4-[(3-Chloro-4-fluorophenyl)amino]-6-[2,2-dimethoxyethylamino]pyrimido[5,4-d]pyrimidine]: the values for the IC50 (in assay [1]; in the assay on F/L-HERc cells) were 28 nM and > 20000 nM, respectively.

For `CC(C)(C)OC(=O)N1CCC(CNc2ncc3ncnc(Nc4ccc(F)c(Cl)c4)c3n2)CC1` [1(26), 4-[(3-Chloro-4-fluorophenyl)amino]-6-[(1-tert-butyloxycarbonyl-4-piperidinyl)methylamino]pyrimido[5,4-d]pyrimidine], the IC50 was 200 nM in assay [1] and > 20000 nM with F/L-HERc cells.

Turning to `CC(C)(N)CNc1ncc2ncnc(Nc3ccc(F)c(Cl)c3)c2n1` [1(27), 4-[(3-Chloro-4-fluorophenyl)amino]-6-[2-amino-2-methyl-1-propylamino]pyrimido[5,4-d]pyrimidine], the results for the IC50 (in assay [1]; in the assay with F/L-HERc cells) were 40 nM and > 10000 nM, respectively.

With `CN1CCC(N(C)c2ncc3ncnc(Nc4ccc(F)c(Cl)c4)c3n2)CC1` [1(28), 4-[(3-Chloro-4-fluorophenyl)amino]-6-[N-methyl-N-(1-methyl-4-piperidinyl)amino]pyrimido[5,4-d]pyrimidine], the IC50 in assay [1] turned out to be 14 nM; with F/L-HERc cells, 10000 nM.

Turning to `Fc1ccc(Nc2ncnc3cnc(NCC4CCNCC4)nc23)cc1Cl` [1(29), 4-[(3-Chloro-4-fluorophenyl)amino]-6-[4-piperidinylmethylamino]pyrimido[5,4-d]pyrimidine], the IC50 in assay [1] was 13 nM; with F/L-HERc cells, > 20000 nM.

On to `Fc1ccc(Nc2ncnc3cnc(N4CCC(N5CCOCC5)CC4)nc23)cc1Cl` [1(30), 4-[(3-Chloro-4-fluorophenyl)amino]-6-[4-(morpholino)-1-Piperidinyl]pyrimido[5,4-d]pyrimidine], for which the IC50 in assay [1] is 125 nM; in the assay on F/L-HERc cells, > 20000 nM.

As for `Fc1ccc(Nc2ncnc3cnc(N4CCC(N5CCCC5)CC4)nc23)cc1Cl` [1(31), 4-[(3-Chloro-4-fluorophenyl)amino]-6-[4-(1-pyrrolidinyl)-1-piperidinyl]pyrimido[5,4-d]pyrimidine], the IC50 was found to be 103 nM in assay [1] and 10000 nM in the assay with F/L-HERc cells.

For the compound `COc1cccc(N2CCN(c3ncc4ncnc(Nc5ccc(F)c(Cl)c5)c4n3)CC2)c1` [1(32), 4-[(3-Chloro-4-fluorophenyl)amino]-6-[4-(3-methoxyphenyl)-1-piperazinyl]pyrimido[5,4-d]pyrimidine], the IC50 in assay [1] is > 1000 nM; in the assay on F/L-HERc cells, > 20000 nM.

Take `COc1ccccc1N1CCN(c2ncc3ncnc(Nc4ccc(F)c(Cl)c4)c3n2)CC1` [1(33), 4-[(3-Chloro-4-fluorophenyl)amino]-6-[4-(2-methoxyphenyl)-1-piperazinyl]pyrimido[5,4-d]pyrimidine]: the IC50 is > 1000 nM in assay [1] and > 20000 nM in the assay on F/L-HERc cells.

With `CC(C)(C)OC(=O)N1CCN(CCNc2ncc3ncnc(Nc4ccc(F)c(Cl)c4)c3n2)CC1` [1(35), 4-[(3-Chloro-4-fluorophenyl)amino]-6-[2-(4-tert-butyloxycarbonyl-1-piperazinyl)ethylamino]pyrimido[5,4-d]pyrimidine], the results for the IC50 (in assay [1]; in the assay with F/L-HERc cells) were 240 nM and > 1000 nM, respectively.

With `CC1CC(c2ccc(O)cc2)CN1c1ncc2ncnc(Nc3ccc(F)c(Cl)c3)c2n1` (stereo not shown) [1(36), 4-[(3-Chloro-4-fluorophenyl)amino]-6-[4-(4-hydroxyphenyl)-2-methyl-1-pyrrolidinyl]pyrimido[5,4-d]pyrimidine], the IC50 in assay [1] was 140 nM; in the assay with F/L-HERc cells, > 1000 nM.

Take `NCC1CCCC(CNc2ncc3ncnc(Nc4ccc(F)c(Cl)c4)c3n2)C1` (stereo not shown) [1(38), 4-[(3-Chloro-4-fluorophenyl)amino]-6-[3-(aminomethyl)cyclohexylmethylamino]pyrimido[5,4-d]pyrimidine]: the figures for the IC50 (in assay [1]; with F/L-HERc cells) were 51 nM and > 1000 nM, respectively.
